From paper PMC12656268, “Venom Peptides Across Asian and American Tarantulas Utilize Dual Pharmacology to Target Activation and Fast Inactivation of Voltage-Gated Sodium Channels” (Toxins, 2025)
Values joined by “and” are separate entries in the source; they are usually repeats but may differ in a detail not shown here. Identical values can stand only once. Positions of bridges follow the written chain, without caps; N, C: chain ends. Residues, ends and D or L forms follow the SMILES beside them.

Target: NaV1.3 (Homo sapiens, UniProt Q9NY46)
Sequence (Q9NY46 whole entry): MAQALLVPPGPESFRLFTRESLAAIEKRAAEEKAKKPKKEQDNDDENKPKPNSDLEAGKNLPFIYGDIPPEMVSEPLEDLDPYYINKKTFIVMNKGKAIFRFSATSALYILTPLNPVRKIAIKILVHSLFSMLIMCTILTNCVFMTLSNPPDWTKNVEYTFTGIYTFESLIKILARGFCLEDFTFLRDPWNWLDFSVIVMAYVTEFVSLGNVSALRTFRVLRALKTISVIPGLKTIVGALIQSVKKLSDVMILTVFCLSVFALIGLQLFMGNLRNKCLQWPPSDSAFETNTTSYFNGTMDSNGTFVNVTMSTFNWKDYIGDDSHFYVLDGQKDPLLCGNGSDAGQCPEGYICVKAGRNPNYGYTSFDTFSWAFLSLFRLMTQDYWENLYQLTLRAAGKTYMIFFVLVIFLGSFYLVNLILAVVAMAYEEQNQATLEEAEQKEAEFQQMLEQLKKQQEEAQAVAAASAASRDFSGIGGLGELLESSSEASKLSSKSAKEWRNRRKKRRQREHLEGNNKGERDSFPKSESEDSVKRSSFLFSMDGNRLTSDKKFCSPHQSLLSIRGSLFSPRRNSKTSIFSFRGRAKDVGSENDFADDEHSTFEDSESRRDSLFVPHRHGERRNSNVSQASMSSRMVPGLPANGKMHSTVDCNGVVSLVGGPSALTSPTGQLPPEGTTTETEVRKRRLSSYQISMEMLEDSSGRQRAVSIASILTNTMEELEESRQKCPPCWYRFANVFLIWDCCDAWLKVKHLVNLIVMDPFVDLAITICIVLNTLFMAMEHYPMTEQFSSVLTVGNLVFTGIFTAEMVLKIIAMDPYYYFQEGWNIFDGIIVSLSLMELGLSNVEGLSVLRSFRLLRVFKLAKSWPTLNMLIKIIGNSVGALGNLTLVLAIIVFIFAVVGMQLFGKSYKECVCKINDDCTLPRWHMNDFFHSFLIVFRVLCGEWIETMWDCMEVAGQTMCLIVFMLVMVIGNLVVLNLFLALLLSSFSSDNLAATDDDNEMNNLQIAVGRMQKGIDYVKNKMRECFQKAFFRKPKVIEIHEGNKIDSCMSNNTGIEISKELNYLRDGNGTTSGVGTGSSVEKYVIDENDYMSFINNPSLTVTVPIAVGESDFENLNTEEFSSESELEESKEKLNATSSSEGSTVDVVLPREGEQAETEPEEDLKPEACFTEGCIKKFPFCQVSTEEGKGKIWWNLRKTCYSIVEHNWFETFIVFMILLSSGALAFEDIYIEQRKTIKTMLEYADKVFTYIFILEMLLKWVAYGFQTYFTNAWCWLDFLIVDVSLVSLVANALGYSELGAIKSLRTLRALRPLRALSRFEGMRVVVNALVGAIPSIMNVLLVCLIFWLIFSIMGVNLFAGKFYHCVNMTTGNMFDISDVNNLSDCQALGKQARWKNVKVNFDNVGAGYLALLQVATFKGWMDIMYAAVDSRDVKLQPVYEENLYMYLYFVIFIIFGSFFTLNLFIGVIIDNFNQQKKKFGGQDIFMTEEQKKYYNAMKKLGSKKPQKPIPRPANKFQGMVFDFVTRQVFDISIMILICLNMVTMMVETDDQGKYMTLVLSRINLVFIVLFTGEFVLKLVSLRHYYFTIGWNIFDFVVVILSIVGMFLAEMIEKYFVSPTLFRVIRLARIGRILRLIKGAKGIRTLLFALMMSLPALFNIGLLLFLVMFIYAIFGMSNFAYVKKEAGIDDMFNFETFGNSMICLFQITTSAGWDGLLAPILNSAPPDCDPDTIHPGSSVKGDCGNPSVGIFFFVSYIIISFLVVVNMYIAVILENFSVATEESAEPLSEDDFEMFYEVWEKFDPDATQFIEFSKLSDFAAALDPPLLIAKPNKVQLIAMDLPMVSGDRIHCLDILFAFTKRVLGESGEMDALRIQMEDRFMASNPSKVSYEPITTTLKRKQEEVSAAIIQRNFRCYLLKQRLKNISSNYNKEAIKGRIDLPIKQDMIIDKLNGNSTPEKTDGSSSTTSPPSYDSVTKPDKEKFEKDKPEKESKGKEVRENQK
Sequence (Q07699 19-218, further chain): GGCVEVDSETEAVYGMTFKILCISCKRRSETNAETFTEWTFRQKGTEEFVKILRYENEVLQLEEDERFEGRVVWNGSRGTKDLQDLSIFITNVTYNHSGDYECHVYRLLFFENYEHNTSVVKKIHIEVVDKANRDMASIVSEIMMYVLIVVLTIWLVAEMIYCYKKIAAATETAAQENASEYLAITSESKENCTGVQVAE
Assay: Voltage dependence of steady-state inactivation and activation, NaV1.3
Format: cell-based
Procedure: The voltage dependence of steady-state activation was assessed by recording sodium currents evoked by depolarizing voltage steps ranging from −110 mV to +80 mV in 5 mV increments. Peak conductance (GNa) was derived using the equation G = I/(V − Vrev), where I denotes the measured current, V the applied membrane potential, and Vrev the sodium reversal potential. To evaluate the voltage dependence of steady-state fast inactivation, a two-pulse protocol was used. Cells were conditioned with 500 ms pre-pulses at potentials between −130 mV and −10 mV (10 mV increments), followed by a 20 ms test depolarization to 0 mV to elicit sodium currents. The steady-state fast inactivation currents were plotted as I/Imax, where I = current value and Imax = highest current value within the experiment. The voltage-dependence of steady-state activation and inactivation were determined either in the absence of peptide or following 5 min exposure to peptide at the respective IC50 concentration at the NaV subtype analyzed to streamline the investigation using an effective single concentration as previously described by us.
For calcium influx experiments, bioactivity comparisons between venom fractions and controls were based on the difference between the maximal and minimal fluorescence intensity values obtained from single-replicate assays. Electrophysiological data analysis was conducted using GraphPad Prism (version 8; GraphPad Software, San Diego, CA, USA). Nonlinear regression was applied to fit the concentration–response relationships using a variable Hill slope: log(inhibitor) versus normalized response for determining IC50 values, and log(agonist) versus normalized response for EC50 calculations. Reversibility and dissociation kinetics were analyzed by fitting data with a single-phase exponential decay model, while voltage-dependence of steady-state activation and inactivation parameters were derived from Boltzmann sigmoid fits of normalized conductance (G/Gmax) or current (I/Imax) values to determine the half-activation or half-inactivation voltages (V50). Data are expressed as mean ± SEM, where n represents the number of individual cells analyzed.

CC(C)C[C@@H]1NC(=O)[C@H](Cc2ccccc2)NC(=O)[C@H](Cc2ccc(O)cc2)NC(=O)[C@H](CCCNC(=N)N)NC(=O)[C@@H](NC(=O)[C@@H](N)CCC(=O)O)CSSC[C@@H]2NC(=O)[C@@H]3CSSC[C@@H](C(=O)N[C@H](C(=O)N[C@@H](Cc4c[nH]c5ccccc45)C(=O)N[C@@H](CC(=O)O)C(=O)N[C@@H](Cc4c[nH]c5ccccc45)C(=O)N[C@H](C(=O)N[C@@H](Cc4ccccc4)C(N)=O)[C@@H](C)O)C(C)C)NC(=O)[C@H](Cc4c[nH]c5ccccc45)NC(=O)[C@H](CCC(N)=O)NC(=O)[C@H](Cc4c[nH]cn4)NC(=O)[C@H](CCCCN)NC(=O)[C@H](CC(N)=O)NC(=O)[C@H](Cc4c[nH]cn4)NC(=O)[C@H](CSSC[C@H](NC(=O)CNC(=O)CNC1=O)C(=O)N[C@@H](CO)C(=O)N[C@@H](CCC(N)=O)C(=O)NCC(=O)N[C@@H](CCC(=O)O)C(=O)N[C@@H](CCCCN)C(=O)N3)NC(=O)[C@H](C(C)C)NC(=O)[C@H](CC(C)C)NC(=O)[C@H](Cc1c[nH]cn1)NC(=O)[C@H](CCC(=O)O)NC2=O [sOa1a-NH2] (H-ECRYFLGGCSQGEKCCEHLVCHNKHQWCVWDWTF-NH2; disulfide 2-16, 9-21, 15-28; N-terminus assumed)
V50 of steady-state activation in presence of peptide, NaV1.3 (control V50 = −21 ± 0.4 mV, steps −110 to +80 mV in 5 mV increments, mean ± SEM, 3 to 5 repeats): −26 mV
V50 of steady-state inactivation in presence of peptide, NaV1.3 (control V50 = −71 ± 0.71 mV, 5 min exposure at IC50 concentration, 23 nM, 500 ms pre-pulses −130 to −10 mV, mean ± SEM, 3 to 5 repeats): -57 ± 1.4 mV and −57 mV
ΔV50 of steady-state inactivation, NaV1.3 (peptide vs control, shift to more depolarized potentials, 3 to 5 repeats): 14 mV
Shift in voltage of activation, NaV1.3 (presence of 23 nM sOa1a-NH2): ≤ 5 mV
